Laboratory results published in patent US7163946B2 (Ligand Pharmaceuticals Incorporated, priority 2002, dated 2007).

What was measured:
Format in all cases: cell-based
hPR [1] = target: T1, hPR (Homo sapiens, UniProt P06401); test: hPR cotransfection assay in CV-1 cells, antagonist mode; conditions: for Emax: CV-1, CV-1 cells, maximal inhibition of reference agonist at EC50 concentration, read-out: hPR Antagonist CV-1 Cells Eff. (%); for IC50: CV-1 cells
T1 sequence (P06401 1-933): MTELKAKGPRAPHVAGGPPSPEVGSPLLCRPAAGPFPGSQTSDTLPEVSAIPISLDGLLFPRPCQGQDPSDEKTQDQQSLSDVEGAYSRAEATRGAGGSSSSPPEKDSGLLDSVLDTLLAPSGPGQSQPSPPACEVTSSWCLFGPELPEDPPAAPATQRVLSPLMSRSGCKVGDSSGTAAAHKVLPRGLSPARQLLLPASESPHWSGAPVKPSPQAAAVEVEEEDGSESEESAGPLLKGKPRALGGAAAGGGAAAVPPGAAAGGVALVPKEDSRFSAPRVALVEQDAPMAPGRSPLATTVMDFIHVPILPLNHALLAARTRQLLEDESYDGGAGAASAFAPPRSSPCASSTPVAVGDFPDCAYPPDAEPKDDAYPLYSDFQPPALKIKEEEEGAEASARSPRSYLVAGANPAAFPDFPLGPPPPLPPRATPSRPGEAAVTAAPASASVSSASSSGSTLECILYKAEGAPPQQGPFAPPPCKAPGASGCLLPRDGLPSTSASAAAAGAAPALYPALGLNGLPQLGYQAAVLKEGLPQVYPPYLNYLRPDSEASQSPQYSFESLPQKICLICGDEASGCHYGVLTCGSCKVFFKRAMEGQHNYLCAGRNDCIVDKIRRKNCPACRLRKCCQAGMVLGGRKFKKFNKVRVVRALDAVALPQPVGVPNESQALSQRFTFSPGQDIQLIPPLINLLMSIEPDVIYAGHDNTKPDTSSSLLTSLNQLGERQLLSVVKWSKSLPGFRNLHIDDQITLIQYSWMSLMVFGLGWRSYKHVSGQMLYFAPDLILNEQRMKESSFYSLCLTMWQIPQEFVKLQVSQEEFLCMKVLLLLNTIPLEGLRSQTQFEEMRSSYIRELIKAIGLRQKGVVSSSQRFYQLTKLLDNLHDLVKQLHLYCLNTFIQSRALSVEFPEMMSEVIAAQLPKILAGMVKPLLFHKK
Method: (§1) Antagonist efficacy was determined as a function (%) of maximal inhibition of a reference agonist at EC50 concentration. All the cotransfection experiments were carried out in 96-well plates by automation (Beckman Biomomek automated workstation).

hPR [2] = target: T1, hPR; test: hPR cotransfection assay in CV-1 cells, agonist mode; conditions: for Emax: CV-1, CV-1 cells, relative to maximal response of progesterone as 100%, read-out: hPR Agonist CV-1 Cells Eff. (%)
Method: as §1

[3] = target: T2, human mineralocorticoid receptor (hMR) (Homo sapiens, UniProt P08235); test: hMR cotransfection assay (potency ratio to hPR); conditions: receptor-selectivity potency ratio, cotransfection assays
T2 sequence (P08235 1-984): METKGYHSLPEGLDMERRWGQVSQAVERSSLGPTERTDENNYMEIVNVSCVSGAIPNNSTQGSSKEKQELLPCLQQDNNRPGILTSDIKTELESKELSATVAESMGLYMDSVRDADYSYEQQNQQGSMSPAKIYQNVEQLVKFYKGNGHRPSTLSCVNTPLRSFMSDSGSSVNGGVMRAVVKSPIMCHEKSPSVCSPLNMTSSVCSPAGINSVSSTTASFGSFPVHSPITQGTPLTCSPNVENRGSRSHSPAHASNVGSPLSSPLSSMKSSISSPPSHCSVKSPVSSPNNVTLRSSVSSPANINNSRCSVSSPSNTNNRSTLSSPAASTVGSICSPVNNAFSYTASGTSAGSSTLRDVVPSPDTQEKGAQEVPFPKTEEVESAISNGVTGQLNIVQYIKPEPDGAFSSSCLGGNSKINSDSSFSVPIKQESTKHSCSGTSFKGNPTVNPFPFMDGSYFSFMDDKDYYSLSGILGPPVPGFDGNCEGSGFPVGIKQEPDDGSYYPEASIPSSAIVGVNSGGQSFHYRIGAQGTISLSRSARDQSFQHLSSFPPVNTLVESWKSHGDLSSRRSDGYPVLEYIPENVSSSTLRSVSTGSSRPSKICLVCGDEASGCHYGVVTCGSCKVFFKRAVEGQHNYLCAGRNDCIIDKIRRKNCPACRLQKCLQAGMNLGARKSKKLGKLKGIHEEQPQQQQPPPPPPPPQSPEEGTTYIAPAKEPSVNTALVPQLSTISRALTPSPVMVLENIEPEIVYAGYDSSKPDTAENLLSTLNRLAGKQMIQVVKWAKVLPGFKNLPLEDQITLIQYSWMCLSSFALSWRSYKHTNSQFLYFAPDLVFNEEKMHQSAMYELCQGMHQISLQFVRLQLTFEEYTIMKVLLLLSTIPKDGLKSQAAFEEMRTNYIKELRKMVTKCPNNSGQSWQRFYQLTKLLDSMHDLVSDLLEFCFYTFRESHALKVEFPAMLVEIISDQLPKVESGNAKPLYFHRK
Method: as §1

hPR [4] = target: T3, hPR (Homo sapiens, UniProt P06401); test: T47D alkaline phosphatase assay, agonist mode; conditions: T47D human breast cancer cells; for Emax: T47D, read-out: hPR Agonist T47D cells Eff. (%)
T3 sequence (P06401 679-933 limits assumed): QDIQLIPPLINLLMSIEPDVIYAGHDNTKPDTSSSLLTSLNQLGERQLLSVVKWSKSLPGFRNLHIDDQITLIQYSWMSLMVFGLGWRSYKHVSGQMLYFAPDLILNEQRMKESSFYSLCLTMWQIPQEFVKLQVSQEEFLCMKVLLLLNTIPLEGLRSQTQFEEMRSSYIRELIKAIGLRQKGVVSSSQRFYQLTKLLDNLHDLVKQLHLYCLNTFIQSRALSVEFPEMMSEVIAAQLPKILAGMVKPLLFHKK
From the text: The potential tissue-selectivities of the selected analogues were examined by using the T47D alkaline phosphatase assay that was developed from human breast cancer cells with endogenous PRs.

[5] = CV-1 cells, read-out: hPR Agonist CV-1 Cells EC50
[6] = Tables 3 and 4, values without footnote, read-out: hPR agonist potencies (EC50 in nM) in the cotransfection assay

SMILES | Emax (hPR [1]) | IC50 (hPR [1]) | Emax (hPR [2]) | EC50 (hPR [2]; [5]) | EC50 (hPR [2]; [6]) | hMR EC50 or IC50/hPR EC50 [3] | EC50 (hPR [4]) | Emax (hPR [4])
COc1ccc(F)cc1/C=C1\Oc2c(F)cc(F)cc2-c2ccc3c(c21)C(C)=CC(C)(C)N3 [Compound 26, 7,9-difluoro-5(Z)-(2-methoxy-5-fluorobenzylidene)-1,2-dihydro-2,2,4-trimethyl-5H-chromeno[3,4-f]quinoline] | < 20% | > 10000 nM | 159% | 0.6 nM | 0.6 nM | >1000 | 7.5 nM | 63%
CC1=CC(C)(C)Nc2ccc3c(c21)/C(=C/Br)Oc1c(F)cc(F)cc1-3 [Compound 29, 7,9-difluoro-5(Z)-bromomethylidene-1,2-dihydro-2,2,4-trimethyl-5H-chromeno[3,4-f]quinoline] | < 20% | > 10000 nM | 191% | 2.3 nM |  | >1000 | 8.7 nM | 62%
CC1=CC(C)(C)Nc2ccc3c(c21)/C(=C/c1ccsc1)Oc1c(F)cc(F)cc1-3 [Compound 30, 7,9-difluoro-5(Z)-(3-thienylmethylidene)-1,2-dihydro-2,2,4-trimethyl-5H-chromeno[3,4-f]quinoline] | < 20% | > 10000 nM | 186% | 5.3 nM |  | >1000 | 33 nM | 66%
CC1=CC(C)(C)Nc2ccc3c(c21)/C(=C/c1cccs1)Oc1c(F)cc(F)cc1-3 [Compound 31, 7,9-difluoro-5(Z)-(2-thienylmethylidene)-1,2-dihydro-2,2,4-trimethyl-5H-chromeno[3,4-f]quinoline] | < 20% | > 10000 nM | 171% | 2.7 nM | 2.7 nM | >1000 | 14 nM | 66%
